Results: publication PMC10988555, “Exploiting Co(III)-Cyclopentadienyl Complexes To Develop Anticancer Agents” (Inorganic Chemistry, 2024)

How the values were obtained:
[1] = Octanol-water partition coefficient, shake-flask method; format: physicochemical; conditions: room temperature
Procedure: The lipophilicity of the CoCp complexes was estimated by the shake-flask method.[54] Before the assays, n-octanol was vigorously mixed with distilled water for 24 h at room temperature to promote solvent saturation of both phases. After separating the phases, the complexes were dissolved in the n-octanol phase to obtain solutions 1.0 × 10^–5 to 2.5 × 10^–4 M. Then, each solution was equilibrated with water for 4 h in a mechanical shaker, at a phase ratio of 2 mL n-octanol:2 mL water. Afterward, the aqueous and octanol layers were carefully separated by centrifugation (5000 rpm, 10 min), and the UV–vis absorption spectra of the complexes were recorded in the n-octanol phase. For each sample, the concentration was determined by using a calibration curve in n-octanol. All experiments were performed in triplicate for each complex, being the averages used for calculation purposes. Finally, the values of the partition coefficients were calculated by resorting to the following eq (eq 1): [drawing 1] 1 where logPoct/water represents the octanol–water partition coefficient, [complex]oct represents the concentration of the complex in the n-octanol phase, and [complex]water represents the concentration of the complex in the water phase.

A2780 cells = assay: Cell cycle progression (PI flow cytometry, double thymidine block); format: cell-based, human; conditions: A2780, 24 h; complexes at IC50, DOX 0.4 μM, cisplatin 5 μM
Procedure: The interference of the copper complexes 2–4 in the cell cycle progression was evaluated in A2780 cells, seeded in 6-weel plates, with a density of 2 × 10^5 cells/well, and incubated for 8 h at the same conditions as described above. After that incubation time, the cells were synchronized in early S-phase with a 2 mM thymidine solution (Sigma, St. Louis, USA) for a 16 h period. Media with thymidine was replaced by fresh media and, after 8 h, another 2 mM thymidine solution was added to the wells (double thymidine block) and incubated for 16 h. […] Cells were incubated for 9, 18, or 24 h, and, at each hour, the cells were treated with TE and centrifuges at 650 × g for 5 min at 4 °C. The pellet was resuspended in PBS 1× and centrifuged at 3000 × g for 5 min at 4 °C. Later, the pellet was resuspended in 100 μL of PBS 1×, and 1 mL of a solution of 80% (v/v) ethanol was gently added to the cells. Cells were stored at 4 °C for at least 12 h and then centrifuged for 10 min at 7500 × g at 4 °C, treated with 250 μL of 50 μg/mL RNase A, and incubated for 30 min at 37 °C. After incubation, 100 μL of PI (25 μg/mL) was added to the cells as well as 650 μL of PBS 1×. The DNA content was evaluated on an Attune Acoustic Focusing Flow Cytometer (ThermoFisher Scientific) and results were analyzed by the respective software.

Fibroblasts = assay: Cell migration (scratch) assay; format: cell-based, human; conditions: IC50 concentrations, 24 h, normalized against DMSO (100%)
Procedure: Fibroblasts were seeded in 24-well plates at a density of 4 × 10^5 cells/mL and grown in the same conditions as described previously until a confluent monolayer was obtained. […] Images of the Fibroblasts were captured right after the exposure (0 h) to the complexes and after 24 h of incubation at 37 °C and 5% (v/v) CO2 in a humidified atmosphere, using CytoSMART Lux2 Live Cell Imager (Axion biosystems, USA) and Ti–U Eclipse Inverted microscope (Nikon Instruments, Japan). Images were analyzed with the ImageJ MRO Wound Healing Tool or with the scratch assay measurement of the CytoSMART cloud portal for the Lux system.

A2780 cell line = assay: Autophagy induction, flow cytometry; format: cell-based, human; conditions: for increase of autophagy compared to the control: A2780, IC50, 48 h, vs DMSO 0.1%; for levels of autophagy: A2780, 48 h, complexes at IC50, DOX 0.4 μM, cisplatin 5 μM, rapamycin 500 nM for 15 h
Procedure: The autophagy induced by complexes 2–4 was evaluated using the Autophagy Assay Kit (ab139484, Abcam, Cambridge, United Kingdom) according to the manufacturer’s instructions. For this, the A2780 cell line was seeded at a density of 2 × 10^5 cells/well in 6-well plates and incubated for 24 h at the conditions mentioned before. […] The positive control Rapamycin at 500 nM was incubated for only 15 h. After 48 h incubation, the cells were washed with PBS 1×, detached with TE, and treated with the Autophagy detection kit (Abcam, Cambridge, UK) according to the manufacturer’s instructions. The evaluation of autophagy induction was done through the Attune acoustic focusing flow cytometer (ThermoFisher Scientific) and respective software.

Calf Thymus DNA (CT-DNA) = assay: Calf thymus DNA binding assays (UV-vis, melting profile); conditions: UV spectroscopy, 25 μM complex
Procedure: Calf Thymus DNA (CT-DNA) binding assay was performed through the UV–vis spectra from 230 to 700 nm on the spectrophotometer Evolution 300 UV–vis (Thermo Fischer Scientific, Waltham, MA, USA). It was used a filtered buffer (5 mM Tris–HCl, 50 mM NaCl, pH 7.02) for the dilution of 0–50 μM of CT-DNA and 25 μM of the complexes 2–4. Control solutions of CT-DNA, CT-DNA + DMSO, and DMSO were also prepared. All solutions were incubated for 24 h at 37 °C and then analyzed. CT-DNA concentration in […] had been determined at 260 nm in a NanoDrop2000 spectrophotometer (Thermo Scientific), using an extinction coefficient of 6600 M^–1 cm^–1. The dilution effect because of the addition of the DNA solution was corrected and the affinity constants were calculated according to eq 2: [drawing 2] 2 where [DNA] is the concentration of CT-DNA (per nucleotide phosphate), εa = Abs/[complex], εf is the extinction coefficient for the free complex, and εb is the extinction coefficient for [Co(η^5-C5H5)(PPh3)(NN)][(CF3SO3)2] when fully bound to DNA. DNA concentration (expressed as the molarity of phosphate groups) was determined with a NanoDrop 2000 spectrophotometer assuming ε260 = 6600 M^–1 cm^–1. A melting profile of 10 μM CT-DNA and 10 μM CT-DNA with 10 μM of the complexes 2–4, was also performed. Evagreen dye was added to all samples after a 1h 30 min incubation of CT-DNA with the complexes at 37 °C. Melting curves were analyzed in a Corbet RotorGene 6000 (Biorad, Spain) by a first incubation step at 37 °C for 5 min followed by a ramp from 37 to 95 °C with 90 s hold in the first step and 5 s hold in the next steps with green acquisition.

| Structure (SMILES) | logP (n-octanol/water partition coefficient) [1] | % of cells in the G2/M phase (A2780 cells) [%] | cellular remission (Fibroblasts) [%] | increase of autophagy compared to the control (A2780 cell line) [×] | effect on lowest-energy absorption band with increasing CT-DNA (Calf Thymus DNA (CT-DNA)) | levels of autophagy (A2780 cell line) [%] |
| --- | --- | --- | --- | --- | --- | --- |
| O=S(=O)([O-])C(F)(F)F.O=S(=O)([O-])C(F)(F)F.[Co+3].c1cc[cH-]c1.c1ccc(P(c2ccccc2)c2ccccc2)cc1.c1cnc2c(c1)ccc1cccnc12 [Complex 3, [Co(η^5-C5H5)(PPh3)(phen)][(CF3SO3)2]] | −0.28 ± 0.05 | 20.7 | 76.9 | 1.5 | a hypochromic effect |  |
| Cc1ccnc(-c2cc(C)ccn2)c1.O=S(=O)([O-])C(F)(F)F.O=S(=O)([O-])C(F)(F)F.[Co+3].c1cc[cH-]c1.c1ccc(P(c2ccccc2)c2ccccc2)cc1 [Complex 2, [Co(η^5-C5H5)(PPh3)(Me2bipy)][(CF3SO3)2]] | −0.56 ± 0.02 | 34.1 | 80.2 | 1.9 | a small hyperchromic effect | 81.5 |
| Nc1cc2cccnc2c2ncccc12.O=S(=O)([O-])C(F)(F)F.O=S(=O)([O-])C(F)(F)F.[Co+3].c1cc[cH-]c1.c1ccc(P(c2ccccc2)c2ccccc2)cc1 [Complex 4, [CoCp(PPh3)(NH2phen)][(CF3SO3)2]] | −0.22 ± 0.03 | 28 | 78.1 | 2.2 | a hypochromic effect | 95.5 |
